What was measured:
[1] = target: T1, Gal4-RORγ-LBD (Homo sapiens, UniProt P51449); test: Gal4-RORγ Luciferase Reporter Assay in HEK-293T Cells; type: cell-based; settings: HEK-293 cells
T1 construct: expressed in transfected cells; host or cells: HEK-293 cells (pcDNA3.1neo plasmid)
T1 sequence (P51449 269-508 limits assumed): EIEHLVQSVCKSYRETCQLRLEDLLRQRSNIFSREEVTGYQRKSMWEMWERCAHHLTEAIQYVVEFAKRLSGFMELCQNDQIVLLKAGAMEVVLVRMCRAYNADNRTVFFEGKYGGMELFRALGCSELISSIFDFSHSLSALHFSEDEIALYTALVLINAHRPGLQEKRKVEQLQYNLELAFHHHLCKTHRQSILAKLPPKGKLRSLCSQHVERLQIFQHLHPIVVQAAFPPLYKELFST
In short: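 In transfected HEK-293 cells (Gal4-RORγ-LBD, Gal4-luciferase), test agents with 2 μM ursolic acid were incubated overnight at 37 °C before luminescent detection. Values are relative to the ursolic-acid-free, compound-free signal (100).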

[2] = target: T2, RORγ-LBD (Homo sapiens, UniProt P51449); test: RORγ-Ligand Binding Domain (LBD) TR-FRET Assay; type: biochemical;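 on TR-FRET Assay Max Response: 665/615 nm ratio relative to signal without ursolic acid or compound set at 100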
T2 construct: made in house; host or cells: SF9 cells (baculovirus)
T2 sequence (P51449 269-508 limits assumed): T1 sequence (P51449 269-508 limits assumed)
In short: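 Lysate from SF9 cells expressing His-RORγ-LBD is diluted to about 3 nM final in 50 mM Tris pH 7.0 assay buffer. A biotin-tagged SRC1 LXXLL peptide goes in at 200 nM final, plus ursolic acid at 2 μM final. Test compounds carry 1% DMSO final; signal read by TR-FRET.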

[3] = luciferase reporter, with 2 μM ursolic acid

Row | EC50 [1, 3] | EC50 [2] | EC50 ([1]; 2 μM ursolic acid) | SMILES | Gal4-RORγ Assay Max Response [1, 3] | TR-FRET Assay Max Response [2] | Gal4-RORγ Assay Max Response ([1]; 2 μM ursolic acid)
1 | < 500 nM | < 500 nM |  | O=C(O)CC[C@H]1CN(S(=O)(=O)c2cc(F)cc(C(F)(F)F)c2)c2cc(-c3cc(F)ccc3F)ccc2O1 [Compound 6J, (S)-3-(6-(2,5-difluorophenyl)-4-((3-fluoro-5-(trifluoromethyl)phenyl)-sulfonyl)-3,4-dihydro-2H-benzo[b][1,4]oxazin-2-yl)propanoic acid] | ** (The symbol “**” indicates a value in the range of greater than 90 to 150) | *** (The symbol “***” indicates a value in the range of greater than 150 to 200) | 
2 | 500 to 5000 nM | < 500 nM |  | Cc1c(C(F)(F)F)cccc1S(=O)(=O)N1C[C@H](CCC(=O)O)Oc2ccc(-c3cc(F)ccc3F)cc21 [Compound 6I, (S)-3-(6-(2,5-difluorophenyl)-4-((2-methyl-3-(trifluoromethyl)phenyl)-sulfonyl)-3,4-dihydro-2H-benzo[b][1,4]oxazin-2-yl)propanoic acid] | ** (The symbol “**” indicates a value in the range of greater than 90 to 150) | *** (The symbol “***” indicates a value in the range of greater than 150 to 200) | 
3 |  | < 500 nM | < 500 nM | Cc1cc(Cl)cc(-c2ccc3c(c2)N(S(=O)(=O)c2cccc(C(F)(F)F)c2)C[C@H](CC2(C(=O)O)CCOCC2)O3)c1 [Compound 78B, (S)-4-((6-(3-chloro-5-methyl-phenyl)-4-((3-(trifluoromethyl)-phenyl)sulfonyl)-3,4-dihydro-2H-benzo[b][1,4]oxazin-2-yl)methyl)tetrahydro-2H-pyran-4-carboxylic acid] |  | ** (The symbol “**” indicates a value in the range of greater than 90 to 150) | ** (The symbol “**” indicates a value in the range of greater than 90 to 150)
4 | 500 to 5000 nM | < 500 nM |  | COc1cccc(-c2ccc3c(c2)N(S(=O)(=O)c2cccc(C(F)(F)F)c2)C[C@H](CCC(=O)NCC(=O)O)O3)c1 [Compound 23K, (S)-(3-(6-(3-methoxyphenyl)-4-((3-(trifluoromethyl)-phenyl)sulfonyl)-3,4-dihydro-2H-benzo[b][1,4]oxazin-2-yl)propanoyl)glycine] | ** (The symbol “**” indicates a value in the range of greater than 90 to 150) | **** (The symbol “****” indicates a value greater than 200) | 
5 |  | < 500 nM | < 500 nM | COc1cc(S(=O)(=O)N2C[C@H](CCC(C)(C)C(=O)O)Oc3ccc(-c4cccc(C(F)(F)F)n4)cc32)ccc1F [Compound 32AJ, (S)-4-(4-((4-fluoro-3-methoxy-phenyl)sulfonyl)-6-(6-(trifluoro-methyl)pyridin-2-yl)-3,4-dihydro-2H-benzo[b][1,4]oxazin-2-yl)-2,2-dimethylbutanoic acid] |  | ** (The symbol “**” indicates a value in the range of greater than 90 to 150) | ** (The symbol “**” indicates a value in the range of greater than 90 to 150)
6 | < 500 nM | < 500 nM |  | O=C(NC[C@H]1CN(S(=O)(=O)c2cccc(C(F)(F)F)c2)c2cc(-c3cc(F)ccc3F)ccc2O1)C1COC1 [Compound 30Z, (S)-N-((6-(2,5-difluorophenyl)-4-((3-(trifluoromethyl)phenyl)-sulfonyl)-3,4-dihydro-2H-benzo[b][1,4]oxazin-2-yl)methyl)oxetane-3-carboxamide] | * (The symbol “*” indicates a value in the range of 25 to 90) | **** (The symbol “****” indicates a value greater than 200) | 
7 | < 500 nM | < 500 nM |  | O=C(O)CC[C@H]1CN(S(=O)(=O)c2cccc(C(F)(F)F)c2)c2cc(-c3cccc(C4CC4)c3)ccc2O1 [Compound 4R, (S)-3-(6-(3-cyclopropylphenyl)-4-((3-(trifluoromethyl)phenyl)-sulfonyl)-3,4-dihydro-2H-benzo[b][1,4]oxazin-2-yl)propanoic acid] | **** (The symbol “****” indicates a value greater than 200) | **** (The symbol “****” indicates a value greater than 200) | 
8 | 5000 to 10000 nM | < 500 nM |  | O=C(O)CNC(=O)CC[C@H]1CN(S(=O)(=O)c2cccc(C(F)(F)F)c2)c2cc(-c3cccc(C(F)(F)F)n3)ccc2O1 [Compound 23J, (S)-(3-(4-((3-(trifluoromethyl)-phenyl)sulfonyl)-6-(6-(trifluoromethyl)pyridin-2-yl)-3,4-dihydro-2H-benzo[b][1,4]oxazin-2-yl)propanoyl)glycine] | *** (The symbol “***” indicates a value in the range of greater than 150 to 200) | **** (The symbol “****” indicates a value greater than 200) | 
9 | < 500 nM | < 500 nM |  | O=C(O)CC[C@H]1CN(S(=O)(=O)c2cccc(C(F)(F)F)c2)c2cc(-c3ccccc3Cl)ccc2O1 [Compound 2A, (S)-3-(6-(2-chlorophenyl)-4-((3-(trifluoromethyl)phenyl)-sulfonyl)-3,4-dihydro-2H-benzo[b][1,4]oxazin-2-yl)propanoic acid] | ** (The symbol “**” indicates a value in the range of greater than 90 to 150) | *** (The symbol “***” indicates a value in the range of greater than 150 to 200) | 
10 |  | < 500 nM | < 500 nM | O=C(O)[C@@H]1C[C@H]1[C@H]1CN(S(=O)(=O)c2cccc(C(F)(F)F)c2)c2cc(-c3cc(F)ccc3F)ccc2O1 [Compound 53, (1R,2R)-2-((S)-6-(2,5-difluorophenyl)-4-((3-(trifluoromethyl)phenyl)sulfonyl)-3,4-dihydro-2H-benzo[b][1,4]oxazin-2-yl)cyclopropane-1-carboxylic acid] |  | ** (The symbol “**” indicates a value in the range of greater than 90 to 150) | ** (The symbol “**” indicates a value in the range of greater than 90 to 150)
11 |  | < 500 nM | < 500 nM | CC(C)(C[C@H]1CN(S(=O)(=O)c2cccc(C(F)(F)F)c2)c2cc(-c3cc(F)ccc3F)ccc2O1)NC(=O)C(C)(C)O [Compound 30CX, (S)-N-(1-(6-(2,5-difluoro-phenyl)-4-((3-(trifluoromethyl)-phenyl)sulfonyl)-3,4-dihydro-2H-benzo[b][1,4]oxazin-2-yl)-2-methylpropan-2-yl)-2-hydroxy-2-methylpropanamide] |  | ** (The symbol “**” indicates a value in the range of greater than 90 to 150) | * (The symbol “*” indicates a value in the range of 25 to 90)
12 |  |  | 500 to 5000 nM | O=C(O)[C@]1(C[C@H]2CN(S(=O)(=O)c3cccc(C(F)(F)F)c3)c3cc(-c4cc(F)ccc4F)ccc3O2)C[C@@](O)(CO)C1 [Compound 89E, (1s,3S)-1-(((S)-6-(2,5-difluoro-phenyl)-4-((3-(trifluoromethyl)-phenyl)sulfonyl)-3,4-dihydro-2H-benzo[b][1,4]oxazin-2-yl)methyl)-3-hydroxy-3-(hydroxymethyl)-cyclobutane-1-carboxylic acid] |  |  | ** (The symbol “**” indicates a value in the range of greater than 90 to 150)
13 |  |  | < 500 nM | O=C(O)CC[C@H]1CN(S(=O)(=O)c2cccc(C(F)(F)F)c2)c2cc(-c3cc(F)cc(F)c3)c(Cl)cc2O1 [Compound 22L, (S)-3-(7-chloro-6-(3,5-difluoro-phenyl)-4-((3-(trifluoromethyl)-phenyl)sulfonyl)-3,4-dihydro-2H-benzo[b][1,4]oxazin-2-yl)propanoic acid] |  |  | ** (The symbol “**” indicates a value in the range of greater than 90 to 150)
14 |  |  | < 500 nM | O=C(O)[C@]1(C[C@H]2CN(S(=O)(=O)c3cccc(C(F)(F)F)c3)c3cc(-c4cc(F)cc(OC(F)F)c4)ccc3O2)C[C@@H](O)C1 [Compound 68, (1r,3R)-1-(((S)-6-(3-(difluoromethoxy)-5-fluorophenyl)-4-((3-(trifluoromethyl)phenyl)sulfonyl)-3,4-dihydro-2H-benzo[b][1,4]oxazin-2-yl)methyl)-3-hydroxycyclobutane-1-carboxylic acid] |  |  | ** (The symbol “**” indicates a value in the range of greater than 90 to 150)
15 |  |  | 500 to 5000 nM | O=C(O)[C@]1(C[C@H]2CN(S(=O)(=O)c3cccc(C(F)(F)F)c3)c3cc(-c4cc(F)ccc4F)ccc3O2)C[C@](O)(CO)C1 [Compound 89D, (1r,3R)-1-(((S)-6-(2,5-difluoro-phenyl)-4-((3-(trifluoromethyl)-phenyl)sulfonyl)-3,4-dihydro-2H-benzo[b][1,4]oxazin-2-yl)methyl)-3-hydroxy-3-(hydroxymethyl)-cyclobutane-1-carboxylic acid] |  |  | ** (The symbol “**” indicates a value in the range of greater than 90 to 150)

Reference: patent US10611740B2, “Aryl dihydro-2H-benzo[b][1,4]oxazine sulfonamide and related compounds for use as agonists of RORγ and the treatment of disease” (Lycera Corporation, priority 2015, dated 2020)
